One block for each molecule: values may come before it. Active and inactive are the calls of the source.
Key:
[1] = biological target: Protein disulfide-isomerase (Homo sapiens, UniProt P07237); assay: PDI inhibitors, insulin aggregation turbidity, dose response, biochemical, absorbance, cherry-picked samples (AID 602350); format: functional
CHO-K1 = assay: (§1) Counterscreen for antagonists of the orexin 1 receptor (OX1R; HCRTR1): Homogeneous time resolved fluorescence (HTRF)-based cell-based dose response assay to identify antagonists of the parental CHO-K1 cell line. [Related pubchem assays (depositor defined):AID434989, AID435008, AID463079, AID485270, AID492963, AID492964, AID492965, AID493232, AID504699, AID504701]; format: functional; conditions: Cricetulus griseus
[2] = as §1, with “Fluorescence-based” for “Homogeneous time resolved fluorescence (HTRF)-based”, “cell-based high throughput” for “cell-based”, “CHO” for “CHO-K1”; format: functional
[3] = biological target: T1, Orexin/Hypocretin receptor type 1 (Homo sapiens, UniProt O43613); assay: Homogeneous Time Resolved Fluorescence (HTRF)-based cell-based high throughput dose response assay for antagonists of the orexin 1 receptor (OX1R; HCRTR1). [Related pubchem assays (depositor defined):AID434989, AID435008, AID463079, AID485270, AID492963, AID492964, AID492965, AID493232, AID504717, AID504718]; format: functional
T1 sequence (O43613 whole entry): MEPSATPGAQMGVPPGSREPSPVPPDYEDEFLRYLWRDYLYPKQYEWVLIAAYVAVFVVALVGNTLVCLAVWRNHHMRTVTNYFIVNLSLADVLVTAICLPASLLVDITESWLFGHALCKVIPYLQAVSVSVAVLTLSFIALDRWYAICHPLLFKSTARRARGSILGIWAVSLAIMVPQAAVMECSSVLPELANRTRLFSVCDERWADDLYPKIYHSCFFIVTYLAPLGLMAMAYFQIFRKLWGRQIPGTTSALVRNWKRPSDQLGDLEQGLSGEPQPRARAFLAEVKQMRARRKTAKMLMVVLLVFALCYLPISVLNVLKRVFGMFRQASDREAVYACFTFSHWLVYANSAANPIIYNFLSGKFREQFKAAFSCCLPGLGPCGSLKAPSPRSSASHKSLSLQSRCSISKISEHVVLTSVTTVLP

[4] = biological target: T1, Orexin/Hypocretin receptor type 1; assay: Fluorescence-based cell-based high throughput dose response assay for antagonists of the orexin 1 receptor (OX1R; HCRTR1). [Related pubchem assays (depositor defined):AID434989, AID435008, AID463079, AID485270, AID492963, AID492964, AID492965, AID493232, AID504717, AID504718]; format: functional
Orexin receptor type 2 [5] = biological target: T2, Orexin receptor type 2 (Homo sapiens, UniProt O43614); assay: Counterscreen assay for antagonists of the orexin 1 receptor (OX1R; HCRTR1): Fluorescence-based cell-based dose response assay for antagonists of the orexin 2 receptor (OX2R; HCRTR2), run by assay provider.; format: functional
T2 sequence (O43614 whole entry): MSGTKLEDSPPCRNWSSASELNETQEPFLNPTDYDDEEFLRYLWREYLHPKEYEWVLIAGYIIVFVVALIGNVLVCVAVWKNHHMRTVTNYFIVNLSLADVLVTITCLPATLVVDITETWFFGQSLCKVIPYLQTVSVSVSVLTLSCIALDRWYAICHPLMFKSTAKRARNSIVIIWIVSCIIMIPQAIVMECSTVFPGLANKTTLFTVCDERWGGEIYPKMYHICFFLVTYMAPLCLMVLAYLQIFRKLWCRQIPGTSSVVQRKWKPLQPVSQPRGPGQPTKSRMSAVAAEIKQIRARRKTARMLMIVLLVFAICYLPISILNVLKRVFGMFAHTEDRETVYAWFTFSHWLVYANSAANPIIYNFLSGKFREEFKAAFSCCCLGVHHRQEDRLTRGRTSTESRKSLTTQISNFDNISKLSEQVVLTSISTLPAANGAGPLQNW

Orexin receptor type 2 [6] = biological target: T2, Orexin receptor type 2; assay: Counterscreen assay for antagonists of the orexin 1 receptor (OX1R; HCRTR1): Homogeneous Time Resolved Fluorescence (HTRF)-based cell-based dose response assay for antagonists of the orexin 2 receptor (OX2R; HCRTR2), run by assay provider.; format: functional
[7] = biological target: Cyclin-dependent kinase 2 (Homo sapiens, UniProt P24941); format: functional;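 note: CDK2 measured as one member of a broad kinome profiling panel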
[8] = biological target: Serine/threonine-protein kinase pim-1 (Homo sapiens, UniProt P11309); format: functional
Serine/threonine-protein kinase pim-1, sequence (P11309 whole entry): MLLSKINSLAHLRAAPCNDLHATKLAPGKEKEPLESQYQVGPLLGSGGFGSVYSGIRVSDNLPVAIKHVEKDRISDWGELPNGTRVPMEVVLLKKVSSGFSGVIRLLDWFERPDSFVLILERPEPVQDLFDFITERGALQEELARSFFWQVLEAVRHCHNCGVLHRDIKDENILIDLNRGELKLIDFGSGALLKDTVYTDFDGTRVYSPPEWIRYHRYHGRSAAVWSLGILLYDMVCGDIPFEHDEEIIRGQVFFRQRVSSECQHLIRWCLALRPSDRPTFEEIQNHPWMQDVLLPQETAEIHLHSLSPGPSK

[9] = biological target: Cell division cycle 7-related protein kinase (Homo sapiens, UniProt O00311); format: functional;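 note: value obtained from a kinome-wide kinase panel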
[10] = biological target: Homeodomain-interacting protein kinase 2 (Homo sapiens, UniProt Q9H2X6); format: functional;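 note: measured within a kinome-wide kinase profiling panel, HIPK2 being one panel member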
[11] = biological target: MAP kinase-interacting serine/threonine-protein kinase 2 (Homo sapiens, UniProt Q9HBH9); format: functional
[12] = biological target: Interleukin-1 receptor-associated kinase 4 (Homo sapiens, UniProt Q9NWZ3); format: functional
[13] = biological target: Glycogen synthase kinase-3 beta (Homo sapiens, UniProt P49841); format: functional;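 note: value comes from a broad kinome profiling panel, with GSK3B as the panel member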
[14] = biological target: cAMP-dependent protein kinase catalytic subunit alpha (Homo sapiens, UniProt P17612); format: functional
[15] = biological target: Dual specificity protein kinase CLK4 (Homo sapiens, UniProt Q9HAZ1); format: functional
Dual specificity protein kinase CLK4, sequence (Q9HAZ1 whole entry): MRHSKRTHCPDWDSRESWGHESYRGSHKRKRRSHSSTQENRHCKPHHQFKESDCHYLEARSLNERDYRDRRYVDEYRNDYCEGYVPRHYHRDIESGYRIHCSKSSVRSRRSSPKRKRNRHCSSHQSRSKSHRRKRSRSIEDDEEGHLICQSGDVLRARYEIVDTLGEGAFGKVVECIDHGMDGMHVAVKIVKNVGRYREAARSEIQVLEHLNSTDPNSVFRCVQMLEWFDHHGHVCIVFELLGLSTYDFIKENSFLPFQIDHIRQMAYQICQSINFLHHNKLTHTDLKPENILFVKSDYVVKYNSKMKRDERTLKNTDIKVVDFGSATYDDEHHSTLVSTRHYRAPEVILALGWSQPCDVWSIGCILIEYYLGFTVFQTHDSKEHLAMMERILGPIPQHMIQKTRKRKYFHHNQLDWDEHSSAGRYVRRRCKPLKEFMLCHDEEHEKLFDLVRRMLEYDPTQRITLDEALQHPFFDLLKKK

[16] = biological target: Mitogen-activated protein kinase kinase kinase kinase 4 (Homo sapiens, UniProt O95819); format: functional
[17] = biological target: Serine/threonine-protein kinase PLK3 (Homo sapiens, UniProt Q9H4B4); format: functional
[18] = biological target: RAC-gamma serine/threonine-protein kinase (Homo sapiens, UniProt Q9Y243); format: functional
[19] = biological target: ALK tyrosine kinase receptor (Homo sapiens, UniProt Q9UM73); format: functional;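 note: ALK tested as one member of a kinase panel screen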
[20] = biological target: Serine/threonine-protein kinase PLK4 (Homo sapiens, UniProt O00444); format: functional;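 note: PLK4 measured as one member of a kinome-wide kinase profiling panel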
[21] = biological target: Proto-oncogene tyrosine-protein kinase receptor Ret (Homo sapiens, UniProt P07949); format: functional;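 note: measured within a kinome-wide profiling panel, RET as the panel member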
[22] = biological target: Fibroblast growth factor receptor 1 (Homo sapiens, UniProt P11362); format: functional
Insulin receptor = Insulin receptor (Homo sapiens, UniProt P06213); format: functional;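 note: insulin receptor kinase tested as one member of a kinome-wide kinase panel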
Insulin receptor, sequence (P06213 28-758 limits assumed): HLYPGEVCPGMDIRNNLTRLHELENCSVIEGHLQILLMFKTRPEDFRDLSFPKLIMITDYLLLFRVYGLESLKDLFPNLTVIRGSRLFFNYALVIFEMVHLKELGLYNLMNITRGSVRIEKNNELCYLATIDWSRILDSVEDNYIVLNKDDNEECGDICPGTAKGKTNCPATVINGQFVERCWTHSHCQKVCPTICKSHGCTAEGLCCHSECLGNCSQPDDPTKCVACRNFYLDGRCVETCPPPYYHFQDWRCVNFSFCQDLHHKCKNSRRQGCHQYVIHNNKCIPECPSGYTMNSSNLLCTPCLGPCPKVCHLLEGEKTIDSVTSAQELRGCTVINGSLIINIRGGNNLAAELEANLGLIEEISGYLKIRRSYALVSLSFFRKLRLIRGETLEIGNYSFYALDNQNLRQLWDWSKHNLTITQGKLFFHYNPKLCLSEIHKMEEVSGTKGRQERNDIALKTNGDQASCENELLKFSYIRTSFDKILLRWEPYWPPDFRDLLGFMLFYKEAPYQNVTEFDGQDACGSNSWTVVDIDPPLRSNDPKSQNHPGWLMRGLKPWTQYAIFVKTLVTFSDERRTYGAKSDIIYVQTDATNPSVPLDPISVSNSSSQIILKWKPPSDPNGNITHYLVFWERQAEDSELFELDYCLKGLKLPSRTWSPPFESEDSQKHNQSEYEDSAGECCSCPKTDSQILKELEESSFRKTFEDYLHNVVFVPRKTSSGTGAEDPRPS
Insulin receptor, sequence (P06213 763-1382 limits assumed): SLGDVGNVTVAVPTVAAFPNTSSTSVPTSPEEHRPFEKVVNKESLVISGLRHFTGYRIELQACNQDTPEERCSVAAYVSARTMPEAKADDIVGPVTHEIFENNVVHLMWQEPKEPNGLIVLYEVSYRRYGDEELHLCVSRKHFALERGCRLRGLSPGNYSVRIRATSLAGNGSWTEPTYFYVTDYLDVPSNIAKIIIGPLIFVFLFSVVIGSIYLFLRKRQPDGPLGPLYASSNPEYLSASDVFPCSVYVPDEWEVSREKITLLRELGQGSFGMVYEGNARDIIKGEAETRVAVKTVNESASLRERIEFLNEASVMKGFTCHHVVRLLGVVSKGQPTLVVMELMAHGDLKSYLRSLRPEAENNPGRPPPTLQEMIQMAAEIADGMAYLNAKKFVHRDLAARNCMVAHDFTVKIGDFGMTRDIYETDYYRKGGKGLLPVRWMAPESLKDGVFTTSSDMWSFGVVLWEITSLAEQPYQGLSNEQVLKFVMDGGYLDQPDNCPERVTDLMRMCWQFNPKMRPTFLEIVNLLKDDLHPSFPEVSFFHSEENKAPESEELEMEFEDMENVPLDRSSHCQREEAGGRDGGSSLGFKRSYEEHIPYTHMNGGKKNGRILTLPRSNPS

[23] = biological target: Serine/threonine-protein kinase pim-3 (Homo sapiens, UniProt Q86V86); format: functional;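 note: value obtained as one member of a broad kinase panel profiling effort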
[24] = biological target: Non-receptor tyrosine-protein kinase TYK2 (Homo sapiens, UniProt P29597); format: functional
[25] = biological target: Hepatocyte growth factor receptor (Homo sapiens, UniProt P08581); format: functional;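 note: kinase panel profiling across the kinome, with MET as the panel member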
Hepatocyte growth factor receptor, sequence (P08581 whole entry): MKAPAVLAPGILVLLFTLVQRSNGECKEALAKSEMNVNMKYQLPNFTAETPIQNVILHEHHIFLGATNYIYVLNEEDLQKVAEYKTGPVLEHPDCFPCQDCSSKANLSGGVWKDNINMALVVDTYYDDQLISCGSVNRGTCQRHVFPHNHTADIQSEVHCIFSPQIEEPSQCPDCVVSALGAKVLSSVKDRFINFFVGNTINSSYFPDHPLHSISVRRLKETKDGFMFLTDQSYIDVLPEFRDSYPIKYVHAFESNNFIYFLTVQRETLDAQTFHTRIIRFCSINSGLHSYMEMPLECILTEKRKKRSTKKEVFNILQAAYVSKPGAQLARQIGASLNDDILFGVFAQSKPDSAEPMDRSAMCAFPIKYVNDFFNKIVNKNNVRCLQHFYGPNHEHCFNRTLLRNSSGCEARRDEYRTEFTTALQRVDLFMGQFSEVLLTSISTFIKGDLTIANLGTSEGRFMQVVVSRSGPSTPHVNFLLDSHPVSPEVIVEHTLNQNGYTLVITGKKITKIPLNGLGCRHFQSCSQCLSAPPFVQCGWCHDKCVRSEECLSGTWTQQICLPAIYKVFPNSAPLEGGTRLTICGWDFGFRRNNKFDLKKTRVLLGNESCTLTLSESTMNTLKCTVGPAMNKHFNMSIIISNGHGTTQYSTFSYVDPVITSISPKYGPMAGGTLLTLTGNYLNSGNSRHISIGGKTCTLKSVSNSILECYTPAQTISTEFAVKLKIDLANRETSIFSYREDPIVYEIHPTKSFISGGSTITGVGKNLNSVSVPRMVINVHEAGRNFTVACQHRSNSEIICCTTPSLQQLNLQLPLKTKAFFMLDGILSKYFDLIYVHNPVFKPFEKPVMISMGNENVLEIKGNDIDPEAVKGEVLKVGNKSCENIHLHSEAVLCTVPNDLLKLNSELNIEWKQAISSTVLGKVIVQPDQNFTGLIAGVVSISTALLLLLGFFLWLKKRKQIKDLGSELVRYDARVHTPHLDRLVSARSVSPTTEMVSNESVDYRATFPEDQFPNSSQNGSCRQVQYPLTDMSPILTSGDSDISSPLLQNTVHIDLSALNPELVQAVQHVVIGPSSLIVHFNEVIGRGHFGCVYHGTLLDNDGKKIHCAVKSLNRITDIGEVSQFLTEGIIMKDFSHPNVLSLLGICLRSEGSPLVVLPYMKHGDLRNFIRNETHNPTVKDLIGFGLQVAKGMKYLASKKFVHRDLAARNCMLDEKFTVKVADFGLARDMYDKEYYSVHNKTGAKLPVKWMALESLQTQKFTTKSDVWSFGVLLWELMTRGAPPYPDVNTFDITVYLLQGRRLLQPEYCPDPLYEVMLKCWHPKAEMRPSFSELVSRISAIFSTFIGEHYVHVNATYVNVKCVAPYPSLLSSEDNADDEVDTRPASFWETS

[26] = biological target: Receptor-type tyrosine-protein kinase FLT3 (Homo sapiens, UniProt P36888); format: functional;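 note: FLT3 was tested as one member of a kinome-wide kinase panel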
[27] = biological target: Serine/threonine-protein kinase Chk1 (Homo sapiens, UniProt O14757); format: functional;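 note: measured as one member of a kinome-wide kinase profiling panel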
Serine/threonine-protein kinase Chk1, sequence (O14757 whole entry): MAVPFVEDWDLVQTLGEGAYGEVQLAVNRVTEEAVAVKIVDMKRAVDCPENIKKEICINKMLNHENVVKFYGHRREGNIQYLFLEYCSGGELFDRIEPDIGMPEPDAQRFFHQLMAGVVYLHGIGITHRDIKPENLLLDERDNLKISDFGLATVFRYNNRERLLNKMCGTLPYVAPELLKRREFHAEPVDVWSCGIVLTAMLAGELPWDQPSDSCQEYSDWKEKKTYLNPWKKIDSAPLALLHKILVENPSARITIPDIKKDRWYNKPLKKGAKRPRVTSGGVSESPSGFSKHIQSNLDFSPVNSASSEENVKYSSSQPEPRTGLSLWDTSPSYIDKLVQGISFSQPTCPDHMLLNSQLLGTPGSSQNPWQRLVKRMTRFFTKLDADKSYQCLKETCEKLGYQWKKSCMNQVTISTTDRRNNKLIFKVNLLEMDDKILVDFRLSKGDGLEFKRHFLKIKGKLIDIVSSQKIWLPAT

[28] = biological target: Vascular endothelial growth factor receptor 2 (Homo sapiens, UniProt P35968); format: functional
[29] = biological target: Protein-tyrosine kinase 6 (Homo sapiens, UniProt Q13882); format: functional
[30] = biological target: RAC-alpha serine/threonine-protein kinase (Homo sapiens, UniProt P31749); format: functional;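 note: AKT1 affinity measured as one member of a kinome-wide kinase profiling panel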
[31] = biological target: Vascular endothelial growth factor receptor 1 (Homo sapiens, UniProt P17948); format: functional;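 note: measured within a kinome-wide profiling panel, FLT1 as the panel member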
[32] = biological target: Serine/threonine-protein kinase PLK1 (Homo sapiens, UniProt P53350); format: functional;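 note: PLK1 measured as one member of a kinome-wide profiling panel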
[33] = biological target: Macrophage colony-stimulating factor 1 receptor (Homo sapiens, UniProt P07333); format: functional;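 note: value comes from the Navigating the Kinome screening panel, CSF1R member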
SRSF protein kinase 1 = SRSF protein kinase 1 (Homo sapiens, UniProt Q96SB4); format: functional;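 note: measured as one member of a kinome-wide kinase profiling panel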
[34] = biological target: Casein kinase I isoform delta (Homo sapiens, UniProt P48730); format: functional;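 note: measured as one member (CSNK1D) of a kinome panel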
[35] = biological target: Homeodomain-interacting protein kinase 4 (Homo sapiens, UniProt Q8NE63); format: functional
[36] = biological target: Dual specificity tyrosine-phosphorylation-regulated kinase 1A (Homo sapiens, UniProt Q13627); format: functional;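 note: measured against DYRK1A as one member of a broad kinome profiling panel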
[37] = biological target: Dual specificity tyrosine-phosphorylation-regulated kinase 1A (Rattus norvegicus, UniProt Q63470); format: biochemical, Homo sapiens
Aurora kinase A = Aurora kinase A (Homo sapiens, UniProt O14965); format: functional;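 note: value from the Navigating the Kinome kinase panel profiling, panel entry STK6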
[38] = biological target: Inhibitor of nuclear factor kappa-B kinase subunit beta (Homo sapiens, UniProt O14920); format: functional

AC50 [1]: 19.5 µM (active)
SMILES: CC(C)Sc1nnc([C@H](Cc2c[nH]c3ccccc23)NC(=O)OC(C)(C)C)o1

SMILES: Cc1ccc(NC2=NC(=O)/C(=C/c3cccn3C)S2)cc1C
IC50 (CHO-K1): > 66.2 µM (inactive) | IC50 [2]: > 49.7 µM (inactive) | IC50 [3]: 2.2 µM (active) | IC50 [4]: 2.24 µM (active) | IC50 (Orexin receptor type 2 [5]): > 88.8 µM (inactive) | IC50 (Orexin receptor type 2 [6]): > 50 µM (inactive)

Ki [7]: > 7.94 µM (inactive) | Ki [8]: 0.794 µM (active) | Ki [9]: 0.02 µM (active) | Ki [10]: 2 µM (active) | Ki [11]: > 10 µM (inactive) | Ki [12]: > 10 µM (inactive) | Ki [13]: 0.631 µM (active) | Ki [14]: > 7.94 µM (inactive) | Ki [15]: 1.26 µM (active) | Ki [16]: 5.01 µM (active)
SMILES: Cc1sc2[nH]c(=O)n3nc(-c4ccncc4)nc3c2c1C

Ki [17]: > 79.4 µM (inactive) | Ki [18]: > 100 µM (inactive) | Ki [19]: 12.6 µM (active) | Ki [20]: > 39.8 µM (inactive) | Ki [21]: 10 µM (active) | Ki [8]: 10 µM (active) | Ki [22]: 10 µM (active) | Ki (Insulin receptor): > 50.1 µM (inactive) | Ki [23]: 12.6 µM (active) | Ki [24]: > 20 µM (inactive) | Ki [25]: > 31.6 µM (inactive) | Ki [26]: 5.01 µM (active) | Ki [27]: > 79.4 µM (inactive) | Ki [28]: 15.8 µM (active) | Ki [29]: > 25.1 µM (inactive) | Ki [30]: > 79.4 µM (inactive) | Ki [31]: 2 µM (active) | Ki [32]: > 79.4 µM (inactive) | Ki [33]: > 25.1 µM (inactive)
SMILES: Nc1nnc2ccc(-c3ccccc3)cn12

Ki (SRSF protein kinase 1): 6.31 µM (active) | Ki [34]: 2.51 µM (active) | Ki [35]: 2 µM (active) | Ki [15]: 2.51 µM (active) | Ki [36]: 3.16 µM (active)
SMILES: CC(C)n1cnc2c(NCc3ccccc3)nc(NCCO)nc21

SMILES: c1ccc2c(c1)[nH]c1cnccc12 [NORHARMANE]
AC50 [37]: 8.75 µM (active) | Ki [8]: 6.31 µM (active) | Ki (Aurora kinase A): 15.8 µM (active) | Ki [38]: 7.94 µM (active)

— ChEMBL document CHEMBL1201862, “PubChem BioAssay data set” (2004)
